# Key:
# Assay type in all cases: in vivo, mouse
# C57BL/KsJ db/db mice [1] = assay: Plasma HDL-cholesterol levels of db/db mice; settings: oral twice daily for 25 days, post-absorption conditions, 7.30 hours after last treatment
# Procedure: (§1) The C57BL/KsJ db/db mice used in the experiments were supplied by Jackson Lab (via Ch. River). After 10 days of acclimatisation in standard conditions (22±2° C.; 55±15% humidity; 15-20 air changes/hour; 12 hour light-darkness cycle with light from 7 a.m. to 7 p.m.) on a standard 4 RF21 diet (Mucedola), blood samples were taken in post-absorption conditions (fasting from 8.30 a.m. to 4.30 p.m.) from the caudal vein with the aid of a Jelco 22G catheter (Johnson and Johnson). Glucose, insulin, triglyceride, cholesterol, free fatty acid and urea levels were checked in the plasma to ensure well-matched distribution of the mice in the treatment groups.
# (§2) The mice were divided into groups and treated orally twice daily with:
# (§3) Omega-3 fatty acid (EPA+DHA 1:1) 200 mg/kg;
# (§4) Omega-3 fatty acid (200 mg/kg)+simvastatin (100 mg/kg);
# (§5) Omega-3 fatty acid (200 mg/kg)+simvastatin (100 mg/kg); Coenzyme Q10 (50 mg/kg)+resveratrol (5 mg/kg)+policosanols (hexacosanol 25 mg/kg)+pantethine (100 mg/kg+selenium (0.5 μg/kg)+zinc (2.5 mg/kg).
# (§6) In the course of the experiment, serum glucose levels, glucose tolerance (OGTT), a number of lipid status variables and weight gain were monitored.
# C57BL/KsJ db/db mice [2] = assay: Blood glucose levels of db/db mice (antidiabetic activity); settings: for Glucose: mean ± S.E.
# Source text: Mutations in laboratory animals have made it possible to develop models that present non-insulin-dependent diabetes associated with obesity, hyperlipidaemia and insulin resistance and that enable us to test the efficacy of new antidiabetic compounds (Reed and Scribner, Diabetes, obesity and metabolism 1: 75-86, 1999).
# A much used genetically diabetic mouse model is the C57BL/KsJ db/db mouse.
# The genetic basis of this model is a defect in the leptin receptor gene which gives rise to leptin resistance and leads to hyperphagia, obesity, hyperinsulinaemia and insulin resistance, with subsequent symptoms of insufficient insulin secretion and hyperglycaemia (Kodama et al., Diabetologia 37: 739-744, 1994; Chen et al., Cell 84: 491-495, 1996). Since hyperglycaemia is accompanied by obesity and insulin resistance, the db/db mouse has characteristics that are close to those of type 2 diabetes in man and is useful for assaying insulin-sensitising compounds.
# as §1
# At the start of treatment, the body weight of the animals was checked and monitoring of the animals' consumption of water and feed was scheduled.
# as §2, §3, §4, §5, §6
# C57BL/KsJ db/db mice [3] = assay: Oral glucose tolerance test (OGTT) in db/db mice; settings: oral twice daily for 18 days, OGTT glucose 3 g/kg, fasted 18 hours, 5 hours after last treatment
# Procedure: (§7) The C57BL/KsJ db/db mice used in the experiments were supplied by Jackson Lab (via Ch. River). […] Glucose, insulin, triglyceride, cholesterol, free fatty acid and urea levels were checked in the plasma to ensure well-matched distribution of the mice in the treatment groups.
# as §2, §3, §4, §5, §6
# C57BL/KsJ db/db mice [4] = assay: Plasma triglyceride levels of db/db mice; settings: oral twice daily for 25 days, post-absorption condition, 7.30 hours after last treatment
# Procedure: as §7, §2, §3, §4, §5, §6
# C57BL/KsJ db/db mice [5] = assay: Plasma fructosamine levels of db/db mice; settings: oral twice daily for 25 days, post-absorption condition, 7.30 hours after last treatment
# Procedure: as §1, §2, §3, §4, §5, §6
# [6] = oral twice daily for 12 days, feeding condition, approx. 15 hours after last treatment
# [7] = oral twice daily for 18 days, fasted for 18 hours, 5 hours after last treatment
structure (smiles),measurement,setting,value
CCC(C)(C)C(=O)O[C@H]1C[C@@H](C)C=C2C=C[C@H](C)[C@H](CC[C@@H]3C[C@@H](O)CC(=O)O3)[C@H]21 [Simvastatin],% Variation (HDL-cholesterol) vs control,C57BL/KsJ db/db mice [1],−11.7%
same,HDL-cholesterol,C57BL/KsJ db/db mice [1]; mean ± S.E.,72.4 ± 4.6 mg/dL
same,% Variation (glucose) vs control,C57BL/KsJ db/db mice [2]; [6],−7.6%
same,Glucose,C57BL/KsJ db/db mice [2]; [6],450 ± 21 mg/dL
same,Glucose,"C57BL/KsJ db/db mice [2]; oral twice daily for 12 days, post-absorption condition (fasting 9 a.m. to 5 p.m.), 8 hours after last treatment",419 ± 33 mg/dL
same,% Variation (glucose) vs control,"C57BL/KsJ db/db mice [2]; oral twice daily for 12 days, post-absorption condition, 8 hours after last treatment",1.2%
same,% Variation (glucose) vs control,C57BL/KsJ db/db mice [2]; [7],−5.5%
same,Glucose,C57BL/KsJ db/db mice [2]; [7],325 ± 27 mg/dL
same,"% Variation (AUC glucose, OGTT) vs control",C57BL/KsJ db/db mice [3],−5.9%
same,AUC Glucose (OGTT),C57BL/KsJ db/db mice [3]; mean ± S.E.,48174 ± 3555 u.a.
same,Variation (triglycerides) vs control,C57BL/KsJ db/db mice [4],−16.5%
same,Triglycerides,C57BL/KsJ db/db mice [4]; mean ± S.E.,79.7 ± 5.1 mg/dL
same,% Variation (fructosamine) vs control,C57BL/KsJ db/db mice [5],−2.5%
same,Fructosamine,C57BL/KsJ db/db mice [5]; mean ± S.E.,0.78 ± 0.12 mM

# From US8853229B2, “Composition containing statins and omega-3 fatty acids” (Sigma-Tau Industrie Farmaceutiche Riunite S.p.A., priority 2004, dated 2014)
